Consider 68 sequences from the supplement of paper PMC11208160.
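Further: IS621 bridge recombinase in Escherichia coli cells against a fixed T5 target plasmid.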

The nature of the data set: recombinant UMI read abundance after kanamycin selection (control-corrected) (log10(CPM+1)); higher = more efficient recombination; extreme values may be limits of the assay; sequences stand for … in AGTGCAGAGAAAATCGGCCAGTTTTCTCTGCCTGCAGTCCGCATGCCGTGGGACCCCTTGGGTTCTAACCTGTTGCCTAGATTTATGCAGCGGACTGCCTTTCTCCCAAAGTGATAAACCGG…AGGTTGGTTTCACT; site = the 11-nt donor. In a few lines: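 Values, expressed as log10(CPM+1), derive from recombinant UMI counts converted to CPM, averaged across replicates and scaled by control-derived factors. Plating was with IPTG (0.07 mM) plus kanamycin or unselected, two replicates each. The screen pooled donor and donor-binding-loop pairs for the IS621 bridge recombinase in Escherichia coli.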
“GGATAGGCATGGACCGGTTTTCCCGGTAATCCGTATTTGCC (site GGATAGGCTGG)”: the “recombinant UMI read abundance (log10)” value was 2.44.
Then “GGATAGGCATGGACCGGTTTTCCCGGTAATCCGTATTTGCC (site GGATAGTCTGG)”, with 0.642; and “GGATAGTCATGGACCGGTTTTCCCGGTAATCCGTATTTGCC (site GGATAGACTGG)”, with 2.31.
To “GGATAGTCATGGACCGGTTTTCCCGGTAATCCGTATTTGCC (site GGATAGCCTGG)” belongs 0; to “GGATAGTCATGGACCGGTTTTCCCGGTAATCCGTATTTGCC (site GGATAGGCTGG)”, 0.
For “GGATAGTCATGGACCGGTTTTCCCGGTAATCCGTATTTGCC (site GGATAGTCTGG)”, the “recombinant UMI read abundance (log10)” value worked out at 2.79.
“GGATCATCATGGACCGGTTTTCCCGGTAATCCGTATTTGTG (site GGATCATCTCA)”: the “recombinant UMI read abundance (log10)” value amounted to 0.926.
Then “GGATCGACATGGACCGGTTTTCCCGGTAATCCGTATTTGCC (site GGATAGACTGG)”, with 1.48; and “GGATCGACATGGACCGGTTTTCCCGGTAATCCGTATTTGCC (site GGATCGACTGG)”, with 1.28; and “GGATCGACATGGACCGGTTTTCCCGGTAATCCGTATTTGCC (site GGATGGACTGG)”, with 0.
Then “GGATCGACATGGACCGGTTTTCCCGGTAATCCGTATTTGCC (site GGATTGACTGG)”, with 0; and “GGATCGCCATGGACCGGTTTTCCCGGTAATCCGTATTTGCG (site GGATCGCCTCG)”, with 0.0649.
With “GGATGGACATGGACCGGTTTTCCCGGTAATCCGTATTTGCC (site GGATAGACTGG)”, the “recombinant UMI read abundance (log10)” value turned out to be 2.17.
To “GGATGGACATGGACCGGTTTTCCCGGTAATCCGTATTTGCC (site GGATCGACTGG)” belongs 0.
To “GGATGGACATGGACCGGTTTTCCCGGTAATCCGTATTTGCC (site GGATGGACTGG)” belongs 2.47; to “GGATGGACATGGACCGGTTTTCCCGGTAATCCGTATTTGCC (site GGATTGACTGG)”, 0.
Then “GGATGGCCATGGACCGGTTTTCCCGGTAATCCGTATTTGCA (site GAATGGCCTTG)”, with 0.
For “GGATGGCCATGGACCGGTTTTCCCGGTAATCCGTATTTGCA (site GCATGGCCTTG)”, the “recombinant UMI read abundance (log10)” value was 0.
Take “GGATGGCCATGGACCGGTTTTCCCGGTAATCCGTATTTGCA (site GGATGGCCTTG)”: the “recombinant UMI read abundance (log10)” value worked out at 0.0128.
Then “GGATGGCCATGGACCGGTTTTCCCGGTAATCCGTATTTGCA (site GTATGGCCTTG)”, with 0.
Then “GGATTCGCATGGACCGGTTTTCCCGGTAATCCGTATTTGCG (site GGATTCGCTCG)”, with 0.0184.
Then “GGATTGACATGGACCGGTTTTCCCGGTAATCCGTATTTGTT (site GGATTGACTAA)”, with 0.888; and “GGCAAAACATGGACCGGTTTTCCCGGTAATCCGTATTTGTT (site GGCAAAACTAA)”, with 0.56.
In the case of “GGCAAGCCATGGACCGGTTTTCCCGGTAATCCGTATTTGAA (site GGCAAACCTTT)”, the “recombinant UMI read abundance (log10)” value came out at 0.
As for “GGCAAGCCATGGACCGGTTTTCCCGGTAATCCGTATTTGAA (site GGCAACCCTTT)”, the “recombinant UMI read abundance (log10)” value came out at 0.
Then “GGCAAGCCATGGACCGGTTTTCCCGGTAATCCGTATTTGAA (site GGCAAGCCTTT)”, with 0.247.
Then “GGCAAGCCATGGACCGGTTTTCCCGGTAATCCGTATTTGAA (site GGCAATCCTTT)”, with 0.
Then “GGCAATGCATGGACCGGTTTTCCCGGTAATCCGTATTTGAA (site GGCAATACTTT)”, with 0.
“GGCAATGCATGGACCGGTTTTCCCGGTAATCCGTATTTGAA (site GGCAATCCTTT)”: the “recombinant UMI read abundance (log10)” value was found to be 0.
To “GGCAATGCATGGACCGGTTTTCCCGGTAATCCGTATTTGAA (site GGCAATGCTTT)” belongs 1.26; to “GGCAATGCATGGACCGGTTTTCCCGGTAATCCGTATTTGAA (site GGCAATTCTTT)”, 0.536; to “GGCATATCATGGACCGGTTTTCCCGGTAATCCGTATTTGCA (site GGCATATCTTG)”, 1.57.
In the case of “GGCCACCCATGGACCGGTTTTCCCGGTAATCCGTATTTGTC (site GGCCACCCTAA)”, the “recombinant UMI read abundance (log10)” value turned out to be 0.133.
Then “GGCCACCCATGGACCGGTTTTCCCGGTAATCCGTATTTGTC (site GGCCACCCTCA)”, with 0.0127; and “GGCCACCCATGGACCGGTTTTCCCGGTAATCCGTATTTGTC (site GGCCACCCTGA)”, with 0; and “GGCCACCCATGGACCGGTTTTCCCGGTAATCCGTATTTGTC (site GGCCACCCTTA)”, with 0.0183.
To “GGCCACCCATGGACCGGTTTTCCCGGTAATCCGTATTTGTT (site AGCCACCCTAA)” belongs 0.0306; to “GGCCACCCATGGACCGGTTTTCCCGGTAATCCGTATTTGTT (site CGCCACCCTAA)”, 0.181.
For the sequence “GGCCACCCATGGACCGGTTTTCCCGGTAATCCGTATTTGTT (site GACCACCCTAA)”, the “recombinant UMI read abundance (log10)” value was determined as 0.018.
Then “GGCCACCCATGGACCGGTTTTCCCGGTAATCCGTATTTGTT (site GCCCACCCTAA)”, with 0.0196; and “GGCCACCCATGGACCGGTTTTCCCGGTAATCCGTATTTGTT (site GGACACCCTAA)”, with 0.0221.
To “GGCCACCCATGGACCGGTTTTCCCGGTAATCCGTATTTGTT (site GGCAACCCTAA)” belongs 0.00185; to “GGCCACCCATGGACCGGTTTTCCCGGTAATCCGTATTTGTT (site GGCCAACCTAA)”, 0.0287; to “GGCCACCCATGGACCGGTTTTCCCGGTAATCCGTATTTGTT (site GGCCACACTAA)”, 0.0112.
Then “GGCCACCCATGGACCGGTTTTCCCGGTAATCCGTATTTGTT (site GGCCACCCTAA)”, with 0.0168; and “GGCCACCCATGGACCGGTTTTCCCGGTAATCCGTATTTGTT (site GGCCACCCTAC)”, with 0.0176; and “GGCCACCCATGGACCGGTTTTCCCGGTAATCCGTATTTGTT (site GGCCACCCTAG)”, with 0.
Take “GGCCACCCATGGACCGGTTTTCCCGGTAATCCGTATTTGTT (site GGCCACCCTAT)”: the “recombinant UMI read abundance (log10)” value amounted to 0.0103.
Then “GGCCACCCATGGACCGGTTTTCCCGGTAATCCGTATTTGTT (site GGCCACCCTCA)”, with 0; and “GGCCACCCATGGACCGGTTTTCCCGGTAATCCGTATTTGTT (site GGCCACCCTGA)”, with 0.
To “GGCCACCCATGGACCGGTTTTCCCGGTAATCCGTATTTGTT (site GGCCACCCTTA)” belongs 0.00548; to “GGCCACCCATGGACCGGTTTTCCCGGTAATCCGTATTTGTT (site GGCCACGCTAA)”, 0.0127.
For “GGCCACCCATGGACCGGTTTTCCCGGTAATCCGTATTTGTT (site GGCCACTCTAA)”, the “recombinant UMI read abundance (log10)” value is 0.00279.
On to “GGCCACCCATGGACCGGTTTTCCCGGTAATCCGTATTTGTT (site GGCCAGCCTAA)”, for which the “recombinant UMI read abundance (log10)” value was 0.
To “GGCCACCCATGGACCGGTTTTCCCGGTAATCCGTATTTGTT (site GGCCATCCTAA)” belongs 0.0127; to “GGCCACCCATGGACCGGTTTTCCCGGTAATCCGTATTTGTT (site GGCCCCCCTAA)”, 0.0711.
To “GGCCACCCATGGACCGGTTTTCCCGGTAATCCGTATTTGTT (site GGCCGCCCTAA)” belongs 0.0085.
Then “GGCCACCCATGGACCGGTTTTCCCGGTAATCCGTATTTGTT (site GGCCTCCCTAA)”, with 0.0064; and “GGCCACCCATGGACCGGTTTTCCCGGTAATCCGTATTTGTT (site GGCGACCCTAA)”, with 0.0156.
Regarding “GGCCACCCATGGACCGGTTTTCCCGGTAATCCGTATTTGTT (site GGCTACCCTAA)”, the “recombinant UMI read abundance (log10)” value amounted to 0.031.
To “GGCCACCCATGGACCGGTTTTCCCGGTAATCCGTATTTGTT (site GGGCACCCTAA)” belongs 0.0781.
To “GGCCACCCATGGACCGGTTTTCCCGGTAATCCGTATTTGTT (site GGTCACCCTAA)” belongs 0.0101.
Regarding “GGCCACCCATGGACCGGTTTTCCCGGTAATCCGTATTTGTT (site GTCCACCCTAA)”, the “recombinant UMI read abundance (log10)” value was determined as 0.0225.
For “GGCCACCCATGGACCGGTTTTCCCGGTAATCCGTATTTGTT (site TGCCACCCTAA)”, the “recombinant UMI read abundance (log10)” value stood at 0.0158.
Then “GGCCACTCATGGACCGGTTTTCCCGGTAATCCGTATTTGTT (site GGCCACACTAA)”, with 0.0252; and “GGCCACTCATGGACCGGTTTTCCCGGTAATCCGTATTTGTT (site GGCCACCCTAA)”, with 0.00888.
Turning to “GGCCACTCATGGACCGGTTTTCCCGGTAATCCGTATTTGTT (site GGCCACGCTAA)”, the “recombinant UMI read abundance (log10)” value turned out to be 0.00402.
To “GGCCACTCATGGACCGGTTTTCCCGGTAATCCGTATTTGTT (site GGCCACTCTAA)” belongs 1.33.
